# Measurements published in publication PMC11269185, “Glutamate acts on acid-sensing ion channels to worsen ischaemic brain injury” (Nature, 2024).
# Key:
# Format in all cases: binding
# [1] = biological target: T1, ASIC1a (acid-sensing ion channel 1a) (Homo sapiens, UniProt P78348); assay: microscale thermophoresis in cell lysate, pH […]; patch clamp; design: gene ASIC1; GFP-tagged ASIC1a in HEK293T lysate
# T1 sequence (P78348 1-528): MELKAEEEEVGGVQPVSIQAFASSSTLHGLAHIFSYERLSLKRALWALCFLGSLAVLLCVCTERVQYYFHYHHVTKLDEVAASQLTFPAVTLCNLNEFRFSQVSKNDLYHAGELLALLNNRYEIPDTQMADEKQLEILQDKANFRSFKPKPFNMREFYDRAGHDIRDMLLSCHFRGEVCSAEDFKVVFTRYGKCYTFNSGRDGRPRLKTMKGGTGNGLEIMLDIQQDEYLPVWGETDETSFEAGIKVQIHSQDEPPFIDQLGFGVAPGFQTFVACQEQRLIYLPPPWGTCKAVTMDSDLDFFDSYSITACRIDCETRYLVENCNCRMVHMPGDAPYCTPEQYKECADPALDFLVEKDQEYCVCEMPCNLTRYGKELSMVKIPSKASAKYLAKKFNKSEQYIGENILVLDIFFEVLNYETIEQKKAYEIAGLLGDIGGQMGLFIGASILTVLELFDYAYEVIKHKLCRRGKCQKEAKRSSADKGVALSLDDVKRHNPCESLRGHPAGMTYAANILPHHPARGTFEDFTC
# [2] = biological target: T1, ASIC1a (acid-sensing ion channel 1a); assay: microscale thermophoresis in cell lysate, pH […] ([…] at pH […]); patch clamp; design: gene ASIC1; GFP-tagged hASIC1a in lysates of transfected HEK293T cells
# [3] = biological target: T1, ASIC1a (acid-sensing ion channel 1a); assay: microscale thermophoresis in cell lysate, pH […]; patch clamp (IC50 […] against glutamate potentiation); design: gene ASIC1; eGFP-tagged wild-type ASIC1a in HEK293T lysate
compound,measurement,setting,value
O=C(O)C1CN(C(c2ccccc2)P(=O)(O)O)CCN1 (stereo not drawn) [LK-2],Kd,[1],1900 ± 400 nM
N[C@@H](CCC(=O)O)C(=O)O [glutamate],Kd,[2],113000 nM
O=C(O)[C@@H]1C[C@H](CP(=O)(O)O)CCN1 [CGS19755],Kd,[3],1100 ± 200 nM
